What all share (format): binding
In experiment [1] the target is T1, Forkhead box protein C2 (FOXC2) (Homo sapiens, UniProt Q99958, S125A).
T1 construct: recombinant His-tagged FOXC2 mutant 1, purified from HEK293T cells
T1 sequence (Q99958 1-501 S125A): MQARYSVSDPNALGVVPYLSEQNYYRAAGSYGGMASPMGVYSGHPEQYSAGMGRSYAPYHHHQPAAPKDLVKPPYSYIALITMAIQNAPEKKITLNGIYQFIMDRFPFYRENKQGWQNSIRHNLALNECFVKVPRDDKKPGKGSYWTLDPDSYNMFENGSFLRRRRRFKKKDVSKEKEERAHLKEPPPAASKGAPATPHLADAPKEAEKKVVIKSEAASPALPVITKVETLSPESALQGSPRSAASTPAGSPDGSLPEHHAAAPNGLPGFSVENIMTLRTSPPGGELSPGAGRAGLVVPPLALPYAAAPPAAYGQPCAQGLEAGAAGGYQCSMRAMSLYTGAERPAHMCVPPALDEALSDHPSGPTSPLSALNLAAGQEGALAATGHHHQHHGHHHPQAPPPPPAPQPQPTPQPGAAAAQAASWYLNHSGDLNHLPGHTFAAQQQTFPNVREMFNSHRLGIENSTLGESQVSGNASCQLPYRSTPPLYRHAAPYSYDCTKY
The experiment is described as follows: BLI (Octet RED […], Ni-NTA sensors).

Experiment [2] has as its target T2, Forkhead box protein C2 (FOXC2) (Homo sapiens, UniProt Q99958).
T2 construct: recombinant His-tagged FOXC2 (WT), purified from HEK293T cells
T2 sequence (Q99958 1-501): T1 sequence (Q99958 1-501 S125A) with A125S
Kind of experiment: BLI (Octet RED […], Ni-NTA sensors); supported by AE-bead competitive pull-down from PMCs.

Experiment [3] addresses T3, Forkhead box protein C2 (FOXC2) (Homo sapiens, UniProt Q99958, N127A).
T3 construct: recombinant His-tagged FOXC2 mutant 2, purified from HEK293T cells
T3 sequence (Q99958 1-501 N127A): T1 sequence (Q99958 1-501 S125A) with A125S, N127A
Kind of experiment: BLI (Octet RED […], Ni-NTA sensors); KD at fit limit.

Molecules are shown by their SMILES. Where a chain is given by its changes, count along the chain named. Where only a bound is given, the exact number is not on record here.

Regarding `O=C1c2cccc(O)c2C(=O)c2c(O)cc(CO)cc21` [AE, 1,8‐dihydroxy‐3‐hydroxymethyl‐anthraquinone], the Kd in experiment [1] is 13.3 µM; in experiment [2], 8.25 µM; in experiment [3] it was under 1 pM.
